Laboratory results from patent US20060241297A1, “Pyridinylamino-pyrimidine derivatives as protein kinase inhibitors” (Cyclacel Limited, priority 2003, published 2006).
Like-named read-outs stand apart in the source and are kept apart here.

Columns and labels:
[1] = system: transformed human cell lines (A549, HT29, Saos-2); test: 72-h MTT cytotoxicity assay, average over cell lines; type: cell-based
Description: (§1) The compounds from the examples above were subjected to a standard cellular proliferation assay using human tumour cell lines obtained from the ATCC (American Type Culture Collection, 10801 University Boulevard, Manessas, Va. 20110-2209, USA). Standard 72-h MTT (thiazolyl blue; 3-[4,5-dimethylthiazol-2-yl]-2,5-diphenyltetrazolium bromide) assays were performed. In short: cells were seeded into 96-well plates according to doubling time and incubated overnight at 37° C. Test compounds were made up in DMSO and a 1/3 dilution series prepared in 100 μL cell media, added to cells (in triplicates) and incubated for 72 ho at 37° C. MTT was made up as a stock of 5 mg/mL in cell media and filter-sterilised. Media was removed from cells followed by a wash with 200 μL PBS. MTT solution was then added at 20 μL per well and incubated in the dark at 37° C. for 4 h. MTT solution was removed and cells again washed with 200 μL PBS. MTT dye was solubilised with 200 μL per well of DMSO with agitation. Absorbance was read at 540 nm and data analysed using curve-fitting software (GraphPad Prism version 3.00 for Windows, GraphPad Software, San Diego Calif. USA) to determine IC50 values (concentration of test compound which inhibits cell growth by 50%). Various modifications and variations of the described aspects of the invention will be apparent to those skilled in the art without departing from the scope and spirit of the invention. Although the invention has been described in connection with specific preferred embodiments, it should be understood that the invention as claimed should not be unduly limited to such specific embodiments. Indeed, various modifications of the described modes of carrying out the invention which are obvious to those skilled in the relevant fields are intended to be within the scope of the following claims.

CDK2/cyclin A = CDK2/cyclin A (Homo sapiens, UniProt P24941); test: Kinase assay, incorporation of radioactive phosphate from ATP; type: biochemical; conditions: 100 μM ATP, 30° C.; read-out: Kinase inhibition Ki CDK2/cyclin A
Description: (§2) The compounds from the examples above were investigated for their ability to inhibit the enzymatic activity of various protein kinases. This was achieved by measurement of incorporation of radioactive phosphate from ATP into appropriate polypeptide substrates. Recombinant protein kinases and kinase complexes were produced or obtained commercially. Assays were performed using 96-well plates and appropriate assay buffers (typically 25 mM β-glycerophosphate, 20 mM MOPS, 5 mM EGTA, 1 mM DTT, 1 mM […], pH 7.4), into which were added 2-4 μg of active enzyme with appropriate substrates. The reactions were initiated by addition of Mg/ATP mix (15 mM MgCl2+100 μM ATP with 30-50 kBq per well of [γ-^32P]-ATP) and mixtures incubated as required at 30° C. Reactions were stopped on ice, followed by filtration through p81 filterplates or GF/C filterplates (Whatman Polyfiltronics, Kent, UK). After washing 3 times with 75 mM aq orthophosphoric acid, plates were dried, scintillant added and incorporated radioactivity measured in a scintillation counter (TopCount, Packard Instruments, Pangboume, Berks, UK). Compounds for kinase assay were made up as 10 mM stocks in DMSO and diluted into 10% DMSO in assay buffer. Data was analysed using curve-fitting software (GraphPad Prism version 3.00 for Windows, GraphPad Software, San Diego Calif. USA) to determine IC50 values (concentration of test compound which inhibits kinase activity by 50%.).

CDK9/cyclin T1 = CDK9/cyclin T1 (Homo sapiens, UniProt P50750); test: as above; type: biochemical; conditions: 100 μM ATP, 30° C.; read-out: Kinase inhibition Ki CDK9/cyclin T1
Chain of CDK9/cyclin T1 (P50750 whole entry): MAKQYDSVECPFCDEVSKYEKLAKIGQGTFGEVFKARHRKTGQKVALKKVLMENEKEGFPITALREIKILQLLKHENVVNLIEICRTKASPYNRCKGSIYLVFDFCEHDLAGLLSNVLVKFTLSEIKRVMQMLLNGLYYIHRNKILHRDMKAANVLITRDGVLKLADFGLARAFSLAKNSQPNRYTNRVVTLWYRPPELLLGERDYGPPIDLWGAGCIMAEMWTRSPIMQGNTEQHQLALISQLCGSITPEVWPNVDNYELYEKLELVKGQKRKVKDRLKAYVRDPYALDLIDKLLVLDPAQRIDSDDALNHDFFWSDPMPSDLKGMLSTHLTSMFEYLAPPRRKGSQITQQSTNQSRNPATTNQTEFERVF
Chain of CDK9/cyclin T1 (O60563 whole entry partner): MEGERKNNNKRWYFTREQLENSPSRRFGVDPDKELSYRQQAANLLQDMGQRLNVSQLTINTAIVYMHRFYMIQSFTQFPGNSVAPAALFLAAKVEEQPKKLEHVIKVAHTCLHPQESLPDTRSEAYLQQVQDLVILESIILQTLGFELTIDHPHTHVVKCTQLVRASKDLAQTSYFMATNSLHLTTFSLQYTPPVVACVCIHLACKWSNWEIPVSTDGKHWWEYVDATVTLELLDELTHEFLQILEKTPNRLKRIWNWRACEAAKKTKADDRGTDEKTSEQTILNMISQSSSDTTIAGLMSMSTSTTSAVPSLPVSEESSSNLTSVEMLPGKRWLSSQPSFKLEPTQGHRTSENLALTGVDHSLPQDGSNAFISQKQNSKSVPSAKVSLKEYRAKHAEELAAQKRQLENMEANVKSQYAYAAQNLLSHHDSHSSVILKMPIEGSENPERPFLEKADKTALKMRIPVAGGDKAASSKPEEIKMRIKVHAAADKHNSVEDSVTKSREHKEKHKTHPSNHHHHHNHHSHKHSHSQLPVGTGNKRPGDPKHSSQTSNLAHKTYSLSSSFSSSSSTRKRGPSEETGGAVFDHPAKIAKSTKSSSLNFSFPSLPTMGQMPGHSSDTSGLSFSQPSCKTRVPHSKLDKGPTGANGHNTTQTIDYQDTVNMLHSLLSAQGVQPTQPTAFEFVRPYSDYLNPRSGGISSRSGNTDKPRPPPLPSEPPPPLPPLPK
Description: as §2

CDK1/cyclin B = CDK1/cyclin B (Homo sapiens, UniProt P06493); test: as above; type: biochemical; conditions: 100 μM ATP, 30° C.; read-out: Kinase inhibition Ki CDK1/cyclin B
Chain of CDK1/cyclin B (P06493 whole entry): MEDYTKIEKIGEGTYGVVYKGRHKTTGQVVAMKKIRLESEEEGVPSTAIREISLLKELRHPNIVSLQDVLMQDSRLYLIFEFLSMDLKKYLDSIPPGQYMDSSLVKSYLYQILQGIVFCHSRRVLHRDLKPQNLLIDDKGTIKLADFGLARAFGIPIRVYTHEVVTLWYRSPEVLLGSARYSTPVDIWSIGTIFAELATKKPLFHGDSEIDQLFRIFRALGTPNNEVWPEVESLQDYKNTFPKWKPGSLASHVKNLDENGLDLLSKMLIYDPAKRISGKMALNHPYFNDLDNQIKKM
Chain of CDK1/cyclin B (P14635 whole entry partner): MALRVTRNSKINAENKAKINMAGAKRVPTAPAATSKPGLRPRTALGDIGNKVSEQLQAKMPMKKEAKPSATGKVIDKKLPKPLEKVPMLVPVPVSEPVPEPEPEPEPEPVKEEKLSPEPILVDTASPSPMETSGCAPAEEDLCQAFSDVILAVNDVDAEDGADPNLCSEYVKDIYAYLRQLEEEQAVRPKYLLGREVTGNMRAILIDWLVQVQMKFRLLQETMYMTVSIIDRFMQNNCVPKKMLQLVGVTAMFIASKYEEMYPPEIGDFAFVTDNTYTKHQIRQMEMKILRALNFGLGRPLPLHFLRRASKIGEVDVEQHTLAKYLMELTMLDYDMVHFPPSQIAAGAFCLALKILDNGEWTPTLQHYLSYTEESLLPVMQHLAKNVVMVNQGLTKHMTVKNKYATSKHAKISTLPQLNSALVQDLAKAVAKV
Description: as §2

CDK4/cyclin D1 = CDK4/cyclin D1 (Homo sapiens, UniProt P11802); test: as above; type: biochemical; conditions: 100 μM ATP, 30° C.; read-out: Kinase inhibition Ki CDK4/cyclin D1
Chain of CDK4/cyclin D1 (P11802 whole entry): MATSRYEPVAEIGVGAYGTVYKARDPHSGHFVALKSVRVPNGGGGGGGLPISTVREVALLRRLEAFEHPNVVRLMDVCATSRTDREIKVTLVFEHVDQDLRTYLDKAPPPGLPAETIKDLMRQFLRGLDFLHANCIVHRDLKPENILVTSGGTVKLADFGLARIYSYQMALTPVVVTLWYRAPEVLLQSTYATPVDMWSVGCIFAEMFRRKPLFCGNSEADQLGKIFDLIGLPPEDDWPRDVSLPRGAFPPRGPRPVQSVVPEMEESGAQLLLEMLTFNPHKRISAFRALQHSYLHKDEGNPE
Chain of CDK4/cyclin D1 (P24385 whole entry partner): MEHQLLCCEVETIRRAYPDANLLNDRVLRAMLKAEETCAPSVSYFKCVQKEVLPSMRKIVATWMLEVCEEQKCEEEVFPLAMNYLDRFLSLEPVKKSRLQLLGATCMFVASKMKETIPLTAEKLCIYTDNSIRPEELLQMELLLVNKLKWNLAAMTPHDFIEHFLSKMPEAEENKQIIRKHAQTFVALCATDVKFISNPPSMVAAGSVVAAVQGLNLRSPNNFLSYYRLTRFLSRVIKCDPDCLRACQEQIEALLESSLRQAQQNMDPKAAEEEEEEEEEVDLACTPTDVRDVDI
Description: as §2

CDK7/cyclin H = CDK7/cyclin H (Homo sapiens, UniProt P50613); test: as above; type: biochemical; conditions: 100 μM ATP, 30° C.; read-out: Kinase inhibition Ki CDK7/cyclin H
Chain of CDK7/cyclin H (P50613 whole entry): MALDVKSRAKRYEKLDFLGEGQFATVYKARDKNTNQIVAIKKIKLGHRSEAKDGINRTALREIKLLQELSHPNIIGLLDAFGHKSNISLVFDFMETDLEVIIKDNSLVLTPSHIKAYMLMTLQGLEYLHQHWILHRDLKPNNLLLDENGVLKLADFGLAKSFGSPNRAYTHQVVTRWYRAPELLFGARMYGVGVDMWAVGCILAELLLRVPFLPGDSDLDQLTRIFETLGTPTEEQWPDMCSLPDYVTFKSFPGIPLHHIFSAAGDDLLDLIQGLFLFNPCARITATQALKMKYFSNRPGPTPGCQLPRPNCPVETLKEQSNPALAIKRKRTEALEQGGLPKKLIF
Chain of CDK7/cyclin H (P51946 whole entry partner): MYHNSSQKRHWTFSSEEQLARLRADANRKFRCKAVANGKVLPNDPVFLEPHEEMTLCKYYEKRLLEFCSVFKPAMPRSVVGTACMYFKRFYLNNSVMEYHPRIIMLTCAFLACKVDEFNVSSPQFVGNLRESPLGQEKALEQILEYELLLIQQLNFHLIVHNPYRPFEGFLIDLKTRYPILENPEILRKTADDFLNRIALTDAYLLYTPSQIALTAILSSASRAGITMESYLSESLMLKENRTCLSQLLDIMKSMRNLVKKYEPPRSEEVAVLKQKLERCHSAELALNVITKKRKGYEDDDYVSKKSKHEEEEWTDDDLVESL
Description: as §2

CDK2/cyclin E = CDK2/cyclin E (Homo sapiens, UniProt P24941); test: as above; type: biochemical; conditions: 100 μM ATP, 30° C.; read-out: Kinase inhibition Ki CDK2/cyclin E
Description: as §2

Aurora-A = biological target: T1, Aurora-A (Homo sapiens, UniProt O14965); test: as above; type: biochemical; conditions: 100 μM ATP, 30° C.; read-out: Kinase inhibition Ki Aurora-A
T1 sequence (O14965 1-403): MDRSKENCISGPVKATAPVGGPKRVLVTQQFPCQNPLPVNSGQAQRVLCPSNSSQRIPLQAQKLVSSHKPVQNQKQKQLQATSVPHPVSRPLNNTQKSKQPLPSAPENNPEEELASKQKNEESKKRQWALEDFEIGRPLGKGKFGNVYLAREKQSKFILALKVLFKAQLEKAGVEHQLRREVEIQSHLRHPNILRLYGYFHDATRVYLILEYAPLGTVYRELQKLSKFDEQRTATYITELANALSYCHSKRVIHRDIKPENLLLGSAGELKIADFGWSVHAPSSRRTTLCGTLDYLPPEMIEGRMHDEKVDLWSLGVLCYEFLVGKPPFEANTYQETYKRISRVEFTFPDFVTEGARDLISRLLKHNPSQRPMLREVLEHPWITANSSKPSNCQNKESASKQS
Description: as §2

GSK3β = GSK3β (Homo sapiens, UniProt P49841); test: as above; type: biochemical; conditions: 100 μM ATP, 30° C.; read-out: Kinase inhibition Ki GSK3β
Chain of GSK3β (P49841 whole entry): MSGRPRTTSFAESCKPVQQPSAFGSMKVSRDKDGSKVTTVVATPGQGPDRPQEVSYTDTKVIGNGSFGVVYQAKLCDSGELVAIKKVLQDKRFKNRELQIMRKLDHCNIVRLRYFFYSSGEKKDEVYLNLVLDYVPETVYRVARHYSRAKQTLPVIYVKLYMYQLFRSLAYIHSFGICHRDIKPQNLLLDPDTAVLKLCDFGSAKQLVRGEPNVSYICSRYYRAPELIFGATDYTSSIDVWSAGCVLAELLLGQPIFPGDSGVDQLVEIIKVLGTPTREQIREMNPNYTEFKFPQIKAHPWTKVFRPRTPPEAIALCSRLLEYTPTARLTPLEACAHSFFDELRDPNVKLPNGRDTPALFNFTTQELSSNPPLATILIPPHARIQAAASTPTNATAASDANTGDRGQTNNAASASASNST
Description: as §2

HT29 = test: 72-h MTT cytotoxicity assay; type: cell-based; conditions: Homo sapiens, HT-29
Description: as §1

A549 = test: 72-h MTT cytotoxicity assay; type: cell-based; conditions: Homo sapiens
Description: as §1

Saos-2 = test: 72-h MTT cytotoxicity assay; type: cell-based; conditions: Homo sapiens
Description: as §1

[2] = average of A549, HT29, Saos-2, read-out: 72-h MTT IC50 Average
[3] = in vitro, read-out: IC50 value (average) against one or more transformed human cell lines, 72-h MTT cytotoxicity assay

Row | Ki (CDK2/cyclin A) [µM] | Ki (CDK9/cyclin T1) [µM] | Ki (CDK1/cyclin B) [µM] | Ki (CDK4/cyclin D1) [µM] | Ki (CDK7/cyclin H) [µM] | Ki (CDK2/cyclin E) [µM] | Ki (Aurora-A) [µM] | Ki (GSK3β) [µM] | melting point [°C] | Compound | IC50 [1, 2] [µM] | IC50 [1, 3] [µM] | IC50 (HT29) [µM] | IC50 (A549) [µM] | IC50 (Saos-2) [µM]
1 | 1.7 | 0.97 | 4.2 | 0.66 | 7.2 | 0.35 | 0.86 | 0.11 |  | Cc1nc(C)c(-c2ccnc(Nc3ccc(Cl)nc3)n2)s1 [Compound 3, (6-Chloro-pyridin-3-yl)-[4-(2,4-dimethyl-thiazol-5-yl)-pyrimidin-2-yl]-amine] | 5.7 ± 3.7 | < 10 | 2.8 | 9.8 | 4.4
2 | 1.4 | 0.1 | 2.1 | 2.6 | 0.73 |  | 0.12 |  |  | Cc1nc(C)c(-c2ccnc(Nc3ccc(N4CCCC4)nc3)n2)s1 [Compound 14, [4-(2,4-Dimethyl-thiazol-5-yl)-pyrimidin-2-yl]-(6-pyrrolidin-1-yl-pyridin-3-yl)-amine] | 0.3 |  |  | 0.3 | 0.32
3 | 0.48 | 0.11 |  | 0.98 |  | 0.08 | 1 |  |  | CNc1nc(C)c(-c2ccnc(Nc3ccc(Cl)nc3)n2)s1 [Compound 9, (6-Chloro-pyridin-3-yl)-[4-(4-methyl-2-methylamino-thiazol-5-yl)-pyrimidin-2-yl]-amine] | 4.6 ± 0.8 | < 10 | 4.7 | 3.7 | 5.2
4 | 0.95 | 0.005 | 5.5 | 0.06 | 0.71 | 0.07 |  | 0.35 |  | COc1ccc(Nc2nccc(-c3sc(N)nc3C)n2)cn1 [Compound 5, [4-(2-Amino-4-methyl-thiazol-5-yl)-pyrimidin-2-yl]-(6-methoxy-pyridin-3-yl)-amine] | 3.5 ± 0.4 | < 10 | 4 | 3.5 | 3.1
5 |  |  |  | 4.1 |  | 1.5 |  |  | 297 to 300 | Cc1nc(C)c(-c2ccnc(Nc3ccc[n+](C)c3)n2)s1 [Compound 2, 3-[4-(2,4-Dimethyl-thiazol-5-yl)-pyrimidin-2-ylamino]-1-methyl-pyridinium] | 48.7 ± 37.2 |  | 86 | 11.6 | 48.5
6 | 0.27 | 0.006 | 0.84 | 0.04 | 0.43 | 0.03 |  | 0.05 |  | CNc1nc(C)c(-c2ccnc(Nc3ccc(OC)nc3)n2)s1 [Compound 8, (6-Methoxy-pyridin-3-yl)-[4-(4-methyl-2-methylamino-thiazol-5-yl)-pyrimidin-2-yl]-amine] | 1.7 ± 0.3 |  | 2 | 1.4 | 1.7
